Results from US20170226139A1, “CRYSTALLINE SALTS OF (Z)-O-OCTADEC-9-EN-1-YL O,O-DIHYDROGEN PHOSPHOROTHIOATE” (priority 2013, published 2017).
Where two headings read alike, the source gives them in different places.

Legend:
[1] = molecular target: T1, LPA2 receptors from the mouse (Mus musculus, UniProt Q9JL06); experiment: Calcium-mobilization assay (FURA-2), mouse LPA2; type: cell-based
T1 construct: expressed in transfected cells
Procedure: We investigated structure-activity relationships across species, LPAR subtypes and between Rx100 and two known process impurities encountered in manufacture: Rx103 (‘E’ isomer) and Rx200 (oleyl phosphate and impurity, which can be an Rx100 degradant along with oleyl alcohol). Rx100, Rx103, Rx200 and native LPA were investigated at different human LPAR subtypes. In addition, the activity of these compounds was evaluated at LPA2 receptors from the rhesus, rat and mouse species. Human LPA1/2/3 subtypes were transfected into mouse embryonic fibroblasts (MEF) or rat hepatoma cells (RH7777)—both of which are normally non-responsive or null to LPA. Human LPA4 was transfected into Chinese hamster ovary (CHO) cells and LPA5 into the B103 neuroblastoma cell line. […] The B103 rat neuroblastoma cell line is endogenously nonresponsive to LPA but expresses heterologous LPA5 receptors well. […] LPAR activation elicits a G-protein-mediated transient rise in intracellular calcium level that is proportional to the concentration of LPA applied. The intracellular calcium level was quantified by the calcium-selective fluorescent indicator FURA-2 (e.g., increased intracellular calcium surge=increased fluorescence).

[2] = test system: S. typhimurium strains TA98, TA100, TA1535 and TA1537 and E. coli strain WP2uvrA; type: cell-based
Procedure: An Ames assay was conducted on Rx100.Lysine using S. typhimurium strains TA98, TA100, TA1535 and TA1537 and E. coli strain WP2uvrA. Two trials were performed. […] See Tables 38A and 38B, respectively. In the second trial, doses ranged from 0.160 to 16 μg/plate with some strains tested with activation and others without activation.

T1 sequence (Q9JL06 whole entry): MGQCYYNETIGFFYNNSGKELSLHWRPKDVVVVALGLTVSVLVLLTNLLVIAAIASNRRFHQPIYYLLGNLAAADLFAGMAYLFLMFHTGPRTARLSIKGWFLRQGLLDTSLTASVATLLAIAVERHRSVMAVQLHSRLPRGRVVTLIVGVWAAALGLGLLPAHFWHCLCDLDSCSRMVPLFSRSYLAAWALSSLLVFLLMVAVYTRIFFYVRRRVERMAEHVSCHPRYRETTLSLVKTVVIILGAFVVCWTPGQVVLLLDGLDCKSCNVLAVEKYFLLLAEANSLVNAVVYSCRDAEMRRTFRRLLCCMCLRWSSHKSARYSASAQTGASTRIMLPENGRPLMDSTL

CCCCCCCC/C=C\CCCCCCCCOP(O)(O)=S [Rx100, (Z)—O-octadec-9-en-1-yl O,O-dihydrogen phosphorothioate]
EC50 [1]: 167 nM
Emax ([1]; read-out: Emax (% of LPA)): 100%

CCCCCCCC/C=C\CCCCCCCCOP(O)(O)=S [Rx100.L-Lysine, (Z)—O-octadec-9-en-1-yl O,O-dihydrogen phosphorothioate]
Ames assay, overall result [2]: negative
Genotoxic Effects ([2]; Bacterial Reverse Mutation Assay, plate incorporation 52 ± 4 hours): Genotoxic Effects: None
Revertant Colony Counts (Mean ± SD) ([2]; TA98, with metabolic activation, 1.45 μg/plate): 17 ± 5 ^N
Revertant Colony Counts (Mean ± SD) ([2]; TA98, with metabolic activation, 4.52 μg/plate): 19 ± 3 ^N
Revertant Colony Counts (Mean ± SD) ([2]; TA98, with metabolic activation, 14.5 μg/plate): 16 ± 5 ^N
Revertant Colony Counts (Mean ± SD) ([2]; TA98, with metabolic activation, 45.2 μg/plate): 20 ± 6 ^N
Revertant Colony Counts (Mean ± SD) ([2]; TA98, with metabolic activation, 145 μg/plate): 0 ± 0 ^E
Revertant Colony Counts (Mean ± SD) ([2]; TA98, with metabolic activation, 452 μg/plate): 0 ± 0 ^V
Revertant Colony Counts (Mean ± SD) ([2]; TA98, with metabolic activation, 1450 μg/plate): 0 ± 0 ^A
Revertant Colony Counts (Mean ± SD) ([2]; TA98, with metabolic activation, 4520 μg/plate): 0 ± 0 ^A
Revertant Colony Counts (Mean ± SD) ([2]; TA100, with metabolic activation, 1.45 μg/plate): 114 ± 12 ^N
Revertant Colony Counts (Mean ± SD) ([2]; TA100, with metabolic activation, 4.52 μg/plate): 117 ± 5 ^N
Revertant Colony Counts (Mean ± SD) ([2]; TA100, with metabolic activation, 14.5 μg/plate): 89 ± 14 ^N
Revertant Colony Counts (Mean ± SD) ([2]; TA100, with metabolic activation, 45.2 μg/plate): 26 ± 3 ^E
Revertant Colony Counts (Mean ± SD) ([2]; TA100, with metabolic activation, 145 μg/plate): 39 ± 3 ^M R
Revertant Colony Counts (Mean ± SD) ([2]; TA100, with metabolic activation, 452 μg/plate): 0 ± 0 ^A T
Revertant Colony Counts (Mean ± SD) ([2]; TA100, with metabolic activation, 1450 μg/plate): 0 ± 0 ^M A T
Revertant Colony Counts (Mean ± SD) ([2]; TA100, with metabolic activation, 4520 μg/plate): 0 ± 0 ^A T
Revertant Colony Counts (Mean ± SD) ([2]; TA1535, with metabolic activation, 0.0181 μg/plate): 10 ± 4 ^N M
Revertant Colony Counts (Mean ± SD) ([2]; TA1535, with metabolic activation, 0.0452 μg/plate): 11 ± 2 ^C M N
Revertant Colony Counts (Mean ± SD) ([2]; TA1535, with metabolic activation, 0.145 μg/plate): 9 ± 3 ^N
Revertant Colony Counts (Mean ± SD) ([2]; TA1535, with metabolic activation, 0.452 μg/plate): 13 ± 1 ^N
Revertant Colony Counts (Mean ± SD) ([2]; TA1535, with metabolic activation, 1.45 μg/plate): 11 ± 5 ^N
Revertant Colony Counts (Mean ± SD) ([2]; TA1535, with metabolic activation, 4.52 μg/plate): 9 ± 1 ^N
Revertant Colony Counts (Mean ± SD) ([2]; TA1535, with metabolic activation, 14.5 μg/plate): 11 ± 3 ^N
Revertant Colony Counts (Mean ± SD) ([2]; TA1537, with metabolic activation, 1.45 μg/plate): 9 ± 3 ^N
Revertant Colony Counts (Mean ± SD) ([2]; TA1537, with metabolic activation, 4.52 μg/plate): 7 ± 2 ^N M
Revertant Colony Counts (Mean ± SD) ([2]; TA1537, with metabolic activation, 14.5 μg/plate): 6 ± 5 ^M N
Revertant Colony Counts (Mean ± SD) ([2]; TA1537, with metabolic activation, 45.2 μg/plate): 3 ± 2 ^E
Revertant Colony Counts (Mean ± SD) ([2]; TA1537, with metabolic activation, 145 μg/plate): 0 ± 0 ^R
Revertant Colony Counts (Mean ± SD) ([2]; TA1537, with metabolic activation, 452 μg/plate): 0 ± 0 ^V
Revertant Colony Counts (Mean ± SD) ([2]; TA1537, with metabolic activation, 1450 μg/plate): 0 ± 0 ^V
Revertant Colony Counts (Mean ± SD) ([2]; TA1537, with metabolic activation, 4520 μg/plate): 0 ± 0 ^A
Revertant Colony Counts (Mean ± SD) ([2]; WP2uvrA, with metabolic activation, 1.45 μg/plate): 13 ± 4 ^N
Revertant Colony Counts (Mean ± SD) ([2]; WP2uvrA, with metabolic activation, 4.52 μg/plate): 17 ± 4 ^M N
Revertant Colony Counts (Mean ± SD) ([2]; WP2uvrA, with metabolic activation, 14.5 μg/plate): 19 ± 4 ^N
Revertant Colony Counts (Mean ± SD) ([2]; WP2uvrA, with metabolic activation, 45.2 μg/plate): 12 ± 4 ^N
Revertant Colony Counts (Mean ± SD) ([2]; WP2uvrA, with metabolic activation, 145 μg/plate): 15 ± 4 ^N M
Revertant Colony Counts (Mean ± SD) ([2]; WP2uvrA, with metabolic activation, 452 μg/plate): 15 ± 5 ^N
Revertant Colony Counts (Mean ± SD) ([2]; WP2uvrA, with metabolic activation, 1450 μg/plate): 9 ± 3 ^N
Revertant Colony Counts (Mean ± SD) ([2]; WP2uvrA, with metabolic activation, 4520 μg/plate): 0 ± 0 ^E
Revertant Colony Counts (Mean ± SD) ([2]; Without Metabolic Activation, TA98, 0.0181 μg/plate): 15 ± 3 ^N
Revertant Colony Counts (Mean ± SD) ([2]; Without Metabolic Activation, TA98, 0.0452 μg/plate): 15 ± 5 ^N M
Revertant Colony Counts (Mean ± SD) ([2]; Without Metabolic Activation, TA98, 0.145 μg/plate): 13 ± 2 ^N M
Revertant Colony Counts (Mean ± SD) ([2]; Without Metabolic Activation, TA98, 0.452 μg/plate): 13 ± 5 ^N
Revertant Colony Counts (Mean ± SD) ([2]; Without Metabolic Activation, TA98, 1.45 μg/plate): 14 ± 2 ^N
Revertant Colony Counts (Mean ± SD) ([2]; Without Metabolic Activation, TA98, 4.52 μg/plate): 12 ± 4 ^N
Revertant Colony Counts (Mean ± SD) ([2]; Without Metabolic Activation, TA98, 14.5 μg/plate): 12 ± 3 ^N
Revertant Colony Counts (Mean ± SD) ([2]; Without Metabolic Activation, TA100, 0.0181 μg/plate): 92 ± 8 ^N
Revertant Colony Counts (Mean ± SD) ([2]; Without Metabolic Activation, TA100, 0.0452 μg/plate): 93 ± 16 ^N
Revertant Colony Counts (Mean ± SD) ([2]; Without Metabolic Activation, TA100, 0.145 μg/plate): 88 ± 11 ^N
Revertant Colony Counts (Mean ± SD) ([2]; Without Metabolic Activation, TA100, 0.452 μg/plate): 86 ± 13 ^N
Revertant Colony Counts (Mean ± SD) ([2]; Without Metabolic Activation, TA100, 1.45 μg/plate): 84 ± 16 ^N
Revertant Colony Counts (Mean ± SD) ([2]; Without Metabolic Activation, TA100, 4.52 μg/plate): 53 ± 7 ^R
Revertant Colony Counts (Mean ± SD) ([2]; Without Metabolic Activation, TA100, 14.5 μg/plate): 51 ± 4 ^M R
Revertant Colony Counts (Mean ± SD) ([2]; Without Metabolic Activation, TA1535, 0.0181 μg/plate): 15 ± 4 ^N
Revertant Colony Counts (Mean ± SD) ([2]; Without Metabolic Activation, TA1535, 0.0452 μg/plate): 16 ± 2 ^N
Revertant Colony Counts (Mean ± SD) ([2]; Without Metabolic Activation, TA1535, 0.145 μg/plate): 12 ± 1 ^N
Revertant Colony Counts (Mean ± SD) ([2]; Without Metabolic Activation, TA1535, 0.452 μg/plate): 11 ± 3 ^N
Revertant Colony Counts (Mean ± SD) ([2]; Without Metabolic Activation, TA1535, 1.45 μg/plate): 11 ± 2 ^N
Revertant Colony Counts (Mean ± SD) ([2]; Without Metabolic Activation, TA1535, 4.52 μg/plate): 8 ± 3 ^N
Revertant Colony Counts (Mean ± SD) ([2]; Without Metabolic Activation, TA1535, 14.5 μg/plate): 4 ± 1 ^R M
Revertant Colony Counts (Mean ± SD) ([2]; Without Metabolic Activation, TA1537, 0.0181 μg/plate): 6 ± 4 ^N
Revertant Colony Counts (Mean ± SD) ([2]; Without Metabolic Activation, TA1537, 0.0452 μg/plate): 6 ± 3 ^N M
Revertant Colony Counts (Mean ± SD) ([2]; Without Metabolic Activation, TA1537, 0.145 μg/plate): 5 ± 0 ^M N
Revertant Colony Counts (Mean ± SD) ([2]; Without Metabolic Activation, TA1537, 0.452 μg/plate): 6 ± 3 ^M N
Revertant Colony Counts (Mean ± SD) ([2]; Without Metabolic Activation, TA1537, 1.45 μg/plate): 5 ± 2 ^N
Revertant Colony Counts (Mean ± SD) ([2]; Without Metabolic Activation, TA1537, 4.52 μg/plate): 3 ± 4 ^N
Revertant Colony Counts (Mean ± SD) ([2]; Without Metabolic Activation, TA1537, 14.5 μg/plate): 1 ± 1 ^R M
Revertant Colony Counts (Mean ± SD) ([2]; Without Metabolic Activation, WP2uvrA, 1.45 μg/plate): 12 ± 5 ^N
Revertant Colony Counts (Mean ± SD) ([2]; Without Metabolic Activation, WP2uvrA, 4.52 μg/plate): 13 ± 3 ^M N
Revertant Colony Counts (Mean ± SD) ([2]; Without Metabolic Activation, WP2uvrA, 14.5 μg/plate): 17 ± 6 ^N
Revertant Colony Counts (Mean ± SD) ([2]; Without Metabolic Activation, WP2uvrA, 45.2 μg/plate): 14 ± 4 ^N
Revertant Colony Counts (Mean ± SD) ([2]; Without Metabolic Activation, WP2uvrA, 145 μg/plate): 15 ± 3 ^N
Revertant Colony Counts (Mean ± SD) ([2]; Without Metabolic Activation, WP2uvrA, 452 μg/plate): 12 ± 2 ^N
Revertant Colony Counts (Mean ± SD) ([2]; Without Metabolic Activation, WP2uvrA, 1450 μg/plate): 8 ± 3 ^E
Revertant Colony Counts (Mean ± SD) ([2]; Without Metabolic Activation, WP2uvrA, 4520 μg/plate): 0 ± 0 ^E
revertant colonies ([2]; any strain, any concentration (1.6 to 5000 μg/plate; 0.160 to 16 μg/plate), with or without metabolic activation): No increase in revertant colonies
